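Five compound concentrations were applied to cells in 96-well plates for 48 hours; endpoints were derived by simple linear interpolation of the resulting dose-response curve. The concentration for 50% growth inhibition is given as GI50.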 Calls of active or inactive are those of the source. No stated cut-off is given here; in the data, active = GI50 up to about 1.1 µM and inactive = higher.
Assays:
Assay in all cases: NCI anticancer screen, dose series, 48 h
HCT-116 = system: HCT-116
NCI/ADR-RES = system: NCI/ADR-RES
A498 = system: A498
Hs-578T = system: Hs-578T
RXF 393 = system: RXF 393
COLO 205 = system: COLO 205
NCI-H226 = system: NCI-H226
Malme-3M = system: Malme-3M
CCRF-CEM = system: CCRF-CEM
SW-620 = system: SW-620
MDA-MB-435 = system: MDA-MB-435
NCI-H23 = system: NCI-H23
RPMI-8226 = system: RPMI-8226
UACC-62 = system: UACC-62
LOX IMVI = system: LOX IMVI
OVCAR-3 = system: OVCAR-3
UO-31 = system: UO-31
U-251 = system: U-251
OVCAR-5 = system: OVCAR-5
HOP-62 = system: HOP-62
CAKI-1 = system: CAKI-1
OVCAR-8 = system: OVCAR-8
MOLT-4 = system: MOLT-4
A549 = system: A549
HL-60 = system: HL-60
SK-MEL-5 = system: SK-MEL-5
DU-145 = system: DU-145
SF-539 = system: SF-539
786-0 = system: 786-0
NCI-H460 = system: NCI-H460
EKVX = system: EKVX
HT-29 = system: HT-29
BT-549 = system: BT-549
T47D = system: T47D
M14 = system: M14
SNB-75 = system: SNB-75
HCC 2998 = system: HCC 2998
MCF7 = system: MCF7
MDA-N = system: MDA-N
MDA-MB-231 = system: MDA-MB-231
TK-10 = system: TK-10
PC-3 = system: PC-3
SN12C = system: SN12C
OVCAR-4 = system: OVCAR-4
SF-268 = system: SF-268
SF-295 = system: SF-295
K562 = system: K562
UACC-257 = system: UACC-257
KM12 = system: KM12
SK-OV-3 = system: SK-OV-3
SK-MEL-28 = system: SK-MEL-28
IGROV-1 = system: IGROV-1
HOP-92 = system: HOP-92
SK-MEL-2 = system: SK-MEL-2
SR = system: SR
HCT-15 = system: HCT-15
SNB-19 = system: SNB-19
ACHN = system: ACHN
NCI-H522 = system: NCI-H522
LXFL 529 = system: LXFL 529
M19-MEL = system: M19-MEL
DMS-273 = system: DMS-273
SNB-78 = system: SNB-78
DLD-1 = system: DLD-1

SMILES: O=[N+]([O-])c1cccc2nc3ccccc3c(NCCC[N+]3([O-])CCOCC3)c12
- GI50 (HCT-116): 94.8 nM (active)
- GI50 (NCI/ADR-RES): 11400 nM (inactive)
- GI50 (A498): 164 nM (active)
- GI50 (Hs-578T): 433 nM (active)
- GI50 (RXF 393): 106 nM (active)
- GI50 (COLO 205): 73.1 nM (active)
- GI50 (NCI-H226): 186 nM (active)
- GI50 (Malme-3M): 162 nM (active)
- GI50 (CCRF-CEM): 93.3 nM (active)
- GI50 (SW-620): 131 nM (active)
- GI50 (MDA-MB-435): 157 nM (active)
- GI50 (NCI-H23): 79.1 nM (active)
- GI50 (RPMI-8226): 193 nM (active)
- GI50 (UACC-62): 154 nM (active)
- GI50 (LOX IMVI): 281 nM (active)
- GI50 (OVCAR-3): 170 nM (active)
- GI50 (UO-31): 1670 nM (inactive)
- GI50 (U-251): 209 nM (active)
- GI50 (OVCAR-5): 327 nM (active)
- GI50 (HOP-62): 119 nM (active)
- GI50 (CAKI-1): 2650 nM (inactive)
- GI50 (OVCAR-8): 210 nM (active)
- GI50 (MOLT-4): 68.7 nM (active)
- GI50 (A549): 95.9 nM (active)
- GI50 (HL-60): 245 nM (active)
- GI50 (SK-MEL-5): 78.2 nM (active)
- GI50 (DU-145): 206 nM (active)
- GI50 (SF-539): 275 nM (active)
- GI50 (786-0): 116 nM (active)
- GI50 (NCI-H460): 94.2 nM (active)
- GI50 (EKVX): 177 nM (active)
- GI50 (HT-29): 85.9 nM (active)
- GI50 (BT-549): 373 nM (active)
- GI50 (T47D): 171 nM (active)
- GI50 (M14): 238 nM (active)
- GI50 (SNB-75): 195 nM (active)
- GI50 (HCC 2998): 12.8 nM (active)
- GI50 (MCF7): 54.8 nM (active)
- GI50 (MDA-N): 130 nM (active)
- GI50 (MDA-MB-231): 247 nM (active)
- GI50 (TK-10): 697 nM (active)
- GI50 (PC-3): 177 nM (active)
- GI50 (SN12C): 171 nM (active)
- GI50 (OVCAR-4): 120 nM (active)
- GI50 (SF-268): 164 nM (active)
- GI50 (SF-295): 275 nM (active)
- GI50 (K562): 223 nM (active)
- GI50 (UACC-257): 351 nM (active)
- GI50 (KM12): 187 nM (active)
- GI50 (SK-OV-3): 281 nM (active)
- GI50 (SK-MEL-28): 290 nM (active)
- GI50 (IGROV-1): 150 nM (active)
- GI50 (HOP-92): 93.5 nM (active)
- GI50 (SK-MEL-2): 175 nM (active)
- GI50 (SR): 26 nM (active)
- GI50 (HCT-15): 1360 nM
- GI50 (SNB-19): 280 nM (active)
- GI50 (ACHN): 650 nM (active)
- GI50 (NCI-H522): 63.1 nM (active)

SMILES: CC(=O)NC1=C(C)C(=O)c2c(nc3n2CCC3OC(=O)CCl)C1=O (configuration not stated)
- GI50 (HCT-116): 2300 nM (inactive)
- GI50 (A498): 12600 nM (inactive)
- GI50 (RXF 393): 5430 nM (inactive)
- GI50 (COLO 205): 17500 nM (inactive)
- GI50 (NCI-H226): 2520 nM (inactive)
- GI50 (Malme-3M): 3660 nM (inactive)
- GI50 (LXFL 529): 2110 nM (inactive)
- GI50 (CCRF-CEM): 1450 nM (inactive)
- GI50 (SW-620): 8990 nM (inactive)
- GI50 (NCI-H23): 11700 nM (inactive)
- GI50 (RPMI-8226): 2650 nM (inactive)
- GI50 (UACC-62): 2810 nM (inactive)
- GI50 (LOX IMVI): 4150 nM (inactive)
- GI50 (OVCAR-3): 1410 nM (inactive)
- GI50 (UO-31): 18000 nM (inactive)
- GI50 (M19-MEL): 12500 nM (inactive)
- GI50 (U-251): 3300 nM (inactive)
- GI50 (OVCAR-5): 12900 nM (inactive)
- GI50 (HOP-62): 17100 nM (inactive)
- GI50 (CAKI-1): 20900 nM (inactive)
- GI50 (OVCAR-8): 4100 nM (inactive)
- GI50 (MOLT-4): 1690 nM (inactive)
- GI50 (A549): 12900 nM (inactive)
- GI50 (HL-60): 2510 nM (inactive)
- GI50 (SK-MEL-5): 12700 nM (inactive)
- GI50 (DMS-273): 17200 nM (inactive)
- GI50 (SF-539): 2730 nM (inactive)
- GI50 (786-0): 9480 nM (inactive)
- GI50 (NCI-H460): 20100 nM (inactive)
- GI50 (EKVX): 8570 nM (inactive)
- GI50 (HT-29): 15600 nM (inactive)
- GI50 (SNB-78): 2960 nM (inactive)
- GI50 (M14): 18200 nM (inactive)
- GI50 (SNB-75): 16300 nM (inactive)
- GI50 (HCC 2998): 12900 nM (inactive)
- GI50 (TK-10): 21000 nM (inactive)
- GI50 (SN12C): 11700 nM (inactive)
- GI50 (OVCAR-4): 1520 nM (inactive)
- GI50 (SF-268): 10300 nM (inactive)
- GI50 (SF-295): 16100 nM (inactive)
- GI50 (K562): 2190 nM (inactive)
- GI50 (UACC-257): 12700 nM (inactive)
- GI50 (KM12): 15600 nM (inactive)
- GI50 (SK-OV-3): 16100 nM (inactive)
- GI50 (SK-MEL-28): 17200 nM (inactive)
- GI50 (IGROV-1): 11800 nM (inactive)
- GI50 (HOP-92): 2330 nM (inactive)
- GI50 (SK-MEL-2): 3000 nM (inactive)
- GI50 (DLD-1): 12900 nM (inactive)
- GI50 (SR): 2680 nM (inactive)
- GI50 (SNB-19): 16600 nM (inactive)
- GI50 (ACHN): 20700 nM (inactive)
- GI50 (NCI-H522): 3050 nM (inactive)

Source: ChEMBL document CHEMBL1201862, “PubChem BioAssay data set” (2004)
